# Test results from ChEMBL document CHEMBL5104219, “Pyrazolidine Carboxamide Analogs as Selective Agonists of the Cannabinoid 2 Receptor” (ACS Med Chem Lett, 2022).
# What was measured:
# Assay type in all cases: functional, cell-based
# Cannabinoid receptor 2 [1] = target: T1, Cannabinoid receptor 2 (Homo sapiens, UniProt P34972); assay: Agonist activity at human CB2 receptor expressed in PathHunter CHO-K1 CNR2 beta-arrestin cells assessed as beta-arrestin recruitment incubated for 3 hrs by plate reader analysis
# Cannabinoid receptor 2 [2] = target: T1, Cannabinoid receptor 2; assay: Agonist activity at human CB2 receptor expressed in CHO cells assessed as inhibition of accumulation of forskolin-stimulated cAMP level by measuring maximum activation incubated for 35 mins by chemiluminescence based assay relative to control; conditions: filed as agonist
# Cannabinoid receptor 2 [3] = target: T1, Cannabinoid receptor 2; assay: Agonist activity at human CB2 receptor expressed in CHO cells assessed as inhibition of accumulation of forskolin-stimulated cAMP level incubated for 35 mins by chemiluminescence based assay
# T1 sequence (P34972 whole entry): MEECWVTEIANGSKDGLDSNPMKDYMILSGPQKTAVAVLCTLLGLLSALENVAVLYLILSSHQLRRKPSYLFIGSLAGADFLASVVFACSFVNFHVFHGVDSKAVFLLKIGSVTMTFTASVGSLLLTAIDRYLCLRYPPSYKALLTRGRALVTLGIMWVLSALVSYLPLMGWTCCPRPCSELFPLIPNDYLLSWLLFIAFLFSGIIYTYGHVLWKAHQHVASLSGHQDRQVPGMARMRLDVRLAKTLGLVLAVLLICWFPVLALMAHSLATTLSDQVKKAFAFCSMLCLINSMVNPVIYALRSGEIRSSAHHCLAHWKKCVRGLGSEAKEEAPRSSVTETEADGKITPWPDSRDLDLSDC
SMILES,EC50 (Cannabinoid receptor 2 [1]) [nM],Emax (Cannabinoid receptor 2 [2]) [%],EC50 (Cannabinoid receptor 2 [3]) [nM]
CC(C)(C)c1cc(NC(=O)N2CCCN2c2ccc(C(F)(F)F)cc2)on1,> 1000,114,–
CC(C)(CO)c1cc(NC(=O)N2CCCN2c2ccc(C(F)(F)F)cc2)on1,167,99.7,42.7
Cc1nc(N2CCN(C)CC2)c2nc(-c3ccccc3Cl)n(C3CCOCC3)c2n1,–,52.6,–
